Data published in the supplement of paper PMC11451515.

Test system: NOMO1
Assay: cell viability relative to DMSO control; higher = less cytotoxic
Conditions: 48 h
Outline: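 Before seeding, each leukemia line was adapted for at least four passages in each medium. NOMO1 or SEM cells (500 cells/well) and P12-Ichikawa cells (1000 cells/well) went into 1536-well plates at 5 μl, then received library compounds in DMSO by pin dosing across 11 threefold concentrations, 47 μM to 0.79 nM. Readout was CellTiter-Glo One luminescence after 48 h at 37°C, and viability is given as a per-plate percentage of DMSO wells, with cell-free wells as background.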

[1] = HPLM + 10% dialyzed FBS, 0.000781 µM
[2] = HPLM + 10% dialyzed FBS, 0.00234 µM
[3] = HPLM + 10% dialyzed FBS, 0.00702 µM
[4] = HPLM + 10% dialyzed FBS, 0.0211 µM
[5] = HPLM + 10% dialyzed FBS, 0.0632 µM
[6] = HPLM + 10% dialyzed FBS, 0.19 µM
[7] = HPLM + 10% dialyzed FBS, 0.569 µM
[8] = HPLM + 10% dialyzed FBS, 1.71 µM
[9] = HPLM + 10% dialyzed FBS, 5.12 µM
[10] = HPLM + 10% dialyzed FBS, 15.4 µM
[11] = HPLM + 10% dialyzed FBS, 46.1 µM
[12] = RPMI 5 mM glucose + 10% FBS, 0.000781 µM
[13] = RPMI 5 mM glucose + 10% FBS, 0.00234 µM
[14] = RPMI 5 mM glucose + 10% FBS, 0.00702 µM
[15] = RPMI 5 mM glucose + 10% FBS, 0.0211 µM
[16] = RPMI 5 mM glucose + 10% FBS, 0.0632 µM
[17] = RPMI 5 mM glucose + 10% FBS, 0.19 µM
[18] = RPMI 5 mM glucose + 10% FBS, 0.569 µM
[19] = RPMI 5 mM glucose + 10% FBS, 1.71 µM
[20] = RPMI 5 mM glucose + 10% FBS, 5.12 µM
[21] = RPMI 5 mM glucose + 10% FBS, 15.4 µM
[22] = RPMI 5 mM glucose + 10% FBS, 46.1 µM
[23] = RPMI 5 mM glucose + 10% dialyzed FBS, 0.000781 µM
[24] = RPMI 5 mM glucose + 10% dialyzed FBS, 0.00234 µM
[25] = RPMI 5 mM glucose + 10% dialyzed FBS, 0.00702 µM
[26] = RPMI 5 mM glucose + 10% dialyzed FBS, 0.0211 µM
[27] = RPMI 5 mM glucose + 10% dialyzed FBS, 0.0632 µM
[28] = RPMI 5 mM glucose + 10% dialyzed FBS, 0.19 µM
[29] = RPMI 5 mM glucose + 10% dialyzed FBS, 0.569 µM
[30] = RPMI 5 mM glucose + 10% dialyzed FBS, 1.71 µM
[31] = RPMI 5 mM glucose + 10% dialyzed FBS, 5.12 µM
[32] = RPMI 5 mM glucose + 10% dialyzed FBS, 15.4 µM
[33] = RPMI 5 mM glucose + 10% dialyzed FBS, 46.1 µM

Structure (SMILES)	cell viability [1] [%]	cell viability [2] [%]	cell viability [3] [%]	cell viability [4] [%]	cell viability [5] [%]	cell viability [6] [%]	cell viability [7] [%]	cell viability [8] [%]	cell viability [9] [%]	cell viability [10] [%]	cell viability [11] [%]	cell viability [12] [%]	cell viability [13] [%]	cell viability [14] [%]	cell viability [15] [%]	cell viability [16] [%]	cell viability [17] [%]	cell viability [18] [%]	cell viability [19] [%]	cell viability [20] [%]	cell viability [21] [%]	cell viability [22] [%]	cell viability [23] [%]	cell viability [24] [%]	cell viability [25] [%]	cell viability [26] [%]	cell viability [27] [%]	cell viability [28] [%]	cell viability [29] [%]	cell viability [30] [%]	cell viability [31] [%]	cell viability [32] [%]	cell viability [33] [%]
O=C(Nc1c(Cl)cncc1Cl)c1ccc(OC(F)F)c(OCC2CC2)c1	108	126	111	97.5	123	105	130	124	109	98.5	100	94.4	102	101	99.1	108	106	120	107	102	103	99.7	94.5	106	112	101	107	112	106	114	97.8	99.6	102
NC/1=N/C2=C([NH]C=N2)C(=S)N1	107	121	121	133	131	115	122	137	126	145	35.1	111	119	123	119	113	115	117	120	109	101	27.6											
C[C@@]12C[C@@]3(O)O[C@@H](O1)[C@]1(COC(=O)c4ccccc4)[C@H]3C[C@@]12O[C@@H]1O[C@H](CO)[C@@H](O)[C@H](O)[C@H]1O	94.6	112	99.3	126	124	130	137	113	100	71.1	45.5	100	95.2	109	103	114	105	105	103	98.3	109	112	103	91.2	94.9	103	101	114	93.7	107	114	110	91
C/C=C(/C)C(=O)O[C@H]1C(C)=C[C@]23C(=O)[C@@H](C=C(CO)[C@@H](O)[C@]12O)[C@H]1[C@@H](C[C@H]3C)C1(C)C	119	127	114	112	93.5	69	66.4	64.7	60.6	61.5	39.3	121	128	121	108	96	79.1	67.8	65.9	66.3	69.4	51.7											
COCCCN1CCC(NC(=O)c2cc(Cl)c(N)c3c2OCC3)CC1	116	124	127	119	147	137	133	150	142	137	110																						
